This passage reports IC50 results from PMC6251817 (Acta Pharmaceutica Sinica. B, 2018).

For orientation: IC50 means the concentration that gives 50% inhibition.

The assay addresses T1, PTP1B (recombinant human GST-PTP1B) (Homo sapiens, UniProt P18031).
T1 sequence (P18031 1-435): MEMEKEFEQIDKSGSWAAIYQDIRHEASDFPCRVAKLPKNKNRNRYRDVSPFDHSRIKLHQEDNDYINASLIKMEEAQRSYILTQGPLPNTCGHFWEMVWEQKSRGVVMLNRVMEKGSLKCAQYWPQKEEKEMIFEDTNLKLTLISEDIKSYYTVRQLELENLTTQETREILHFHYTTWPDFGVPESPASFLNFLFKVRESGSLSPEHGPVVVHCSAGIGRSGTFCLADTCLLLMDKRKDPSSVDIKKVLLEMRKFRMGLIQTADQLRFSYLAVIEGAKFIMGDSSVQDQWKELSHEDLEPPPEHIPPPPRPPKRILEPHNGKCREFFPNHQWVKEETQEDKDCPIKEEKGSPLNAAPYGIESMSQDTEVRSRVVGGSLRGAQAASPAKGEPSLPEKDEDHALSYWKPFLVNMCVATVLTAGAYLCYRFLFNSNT
The assay can be described thus: pNPP hydrolysis, absorbance […] nm. In kind it is biochemical.

`CN(C)c1ccc(C(=O)CCc2ccc(C(=O)Nc3ccc(C(=O)Nc4ccccc4)cc3)cc2)cc1` [compound 4, 4-(3-(4-(Dimethylamino)phenyl)-3-oxopropyl)-N-(4-(phenylcarbamoyl)phenyl)benzamide]: the IC50 was 4.9 µM. For `COc1ccc(C(=O)CCc2ccc(C(=O)Nc3ccc(C(=O)Nc4ccc(N5CCOCC5)cc4)cc3)cc2)cc1` [compound 8, 4-(3-(4-Methoxyphenyl)-3-oxopropyl)-N-(4-((4-morpholinophenyl)carbamoyl)phenyl)benzamide] the value was 7.26 µM; for `O=C(/C=C/c1ccc(C(=O)Nc2ccc(C(=O)Nc3ccccc3)cc2)cc1)c1ccc(F)cc1` [compound 9, (E)-4-(3-(4-Fluorophenyl)-3-oxoprop-1-en-1-yl)-N-(4-(phenylcarbamoyl)phenyl)benzamide], 8.81 µM.

For `Cc1ccc(C(=O)/C=C/c2ccc(C(=O)Nc3ccc(C(=O)Nc4ccccc4)cc3)cc2)cc1` [compound 10, (E)-4-(3-Oxo-3-(p-tolyl)prop-1-en-1-yl)-N-(4-(phenylcarbamoyl)phenyl)benzamide], the IC50 was 5.23 µM. For `COc1ccc(/C=C/C(=O)c2ccc(C(=O)Nc3ccc(C(=O)Nc4ccccc4)cc3)cc2)cc1` [compound 15, (E)-4-(3-(4-Methoxyphenyl)acryloyl)-N-(4-(phenylcarbamoyl)phenyl)benzamide] the value was 7.74 µM.

As to `COc1ccc(C(=O)NCc2ccc(C(=O)Nc3ccc(C(=O)Nc4ccccc4)cc3)cc2)cc1` [compound 18, 4-Methoxy-N-(4-((4-(phenylcarbamoyl)phenyl)carbamoyl)benzyl)benzamide], the IC50 amounted to 8.16 µM. `COc1ccc(C(=O)NCc2ccc(C(=O)Nc3ccc(C(=O)Nc4ccc(N5CCOCC5)cc4)cc3)cc2)cc1` [compound 20, 4-Methoxy-N-(4-((4-((4-morpholinophenyl)carbamoyl)phenyl)carbamoyl)benzyl)benzamide]: the IC50 was found to be 6.85 µM.

As for `COc1ccc(C(=O)NCc2ccc(C(=O)Nc3ccc(C(=O)Nc4ccccc4OC)cc3)cc2)cc1` [compound 23, 4-Methoxy-N-(4-((4-((2-methoxyphenyl)carbamoyl)phenyl)carbamoyl)benzyl)benzamide], the IC50 was 4.76 µM. For the compound `COc1ccc(CC(=O)Nc2ccc(NC(=O)c3ccc(CCC(=O)c4ccc(OC)cc4)cc3)cc2)cc1` [compound 27, 4-(3-(4-Methoxyphenyl)-3-oxopropyl)-N-(4-(2-(4-methoxyphenyl)acetamido)phenyl)benzamide], the IC50 is 4.19 µM. With `COc1ccc(CC(=O)Nc2ccc(NC(=O)c3ccc(/C=C/C(=O)c4ccc(OC)cc4)cc3)cc2)cc1` [compound 28, (E)-4-(3-(4-Methoxyphenyl)-3-oxoprop-1-en-1-yl)-N-(4-(2-(4-methoxyphenyl)acetamido)phenyl)benzamide], the IC50 was determined as 5.91 µM.

Consider `COc1ccc(/C=C/C(=O)c2ccc(C(=O)Nc3ccc(NC(=O)Cc4ccc(OC)cc4)cc3)cc2)cc1` [compound 29, (E)-N-(4-(2-(4-Methoxyphenyl)acetamido)phenyl)-4-(3-(4-methoxyphenyl)acryloyl)benzamide], for which the IC50 is 4.7 µM. With `COc1ccc(C(=O)NCc2ccc(C(=O)Nc3ccc(NC(=O)c4ccccc4)cc3)cc2)cc1` [compound 31, N-(4-Benzamidophenyl)-4-((4-methoxybenzamido)methyl)benzamide], the IC50 came out at 6.22 µM.

As for `COc1ccc(C(=O)CCc2ccc(C(=O)Nc3cccc(C(=O)Nc4cc(OC)cc(OC)c4)c3)cc2)cc1` [compound 33, N-(3,5-Dimethoxyphenyl)-3-(4-(3-(4-methoxyphenyl)-3-oxopropyl)benzamido)benzamide], the IC50 was found to be 24.3 µM.
